Test results from article PMC11945486, “TAS1R2/TAS1R3 Single-Nucleotide Polymorphisms Affect Sweet Taste Receptor Activation by Sweeteners: The SWEET Project” (Nutrients, 2025).

Biological target: T1, human TAS1R2-S212G (subunit alone) (Homo sapiens, UniProt Q8TE23, S212G)
T1 construct: expressed in transfected cells; host or cells: HEK293T-Gα16gust44
T1 sequence (Q8TE23 20-839 S212G): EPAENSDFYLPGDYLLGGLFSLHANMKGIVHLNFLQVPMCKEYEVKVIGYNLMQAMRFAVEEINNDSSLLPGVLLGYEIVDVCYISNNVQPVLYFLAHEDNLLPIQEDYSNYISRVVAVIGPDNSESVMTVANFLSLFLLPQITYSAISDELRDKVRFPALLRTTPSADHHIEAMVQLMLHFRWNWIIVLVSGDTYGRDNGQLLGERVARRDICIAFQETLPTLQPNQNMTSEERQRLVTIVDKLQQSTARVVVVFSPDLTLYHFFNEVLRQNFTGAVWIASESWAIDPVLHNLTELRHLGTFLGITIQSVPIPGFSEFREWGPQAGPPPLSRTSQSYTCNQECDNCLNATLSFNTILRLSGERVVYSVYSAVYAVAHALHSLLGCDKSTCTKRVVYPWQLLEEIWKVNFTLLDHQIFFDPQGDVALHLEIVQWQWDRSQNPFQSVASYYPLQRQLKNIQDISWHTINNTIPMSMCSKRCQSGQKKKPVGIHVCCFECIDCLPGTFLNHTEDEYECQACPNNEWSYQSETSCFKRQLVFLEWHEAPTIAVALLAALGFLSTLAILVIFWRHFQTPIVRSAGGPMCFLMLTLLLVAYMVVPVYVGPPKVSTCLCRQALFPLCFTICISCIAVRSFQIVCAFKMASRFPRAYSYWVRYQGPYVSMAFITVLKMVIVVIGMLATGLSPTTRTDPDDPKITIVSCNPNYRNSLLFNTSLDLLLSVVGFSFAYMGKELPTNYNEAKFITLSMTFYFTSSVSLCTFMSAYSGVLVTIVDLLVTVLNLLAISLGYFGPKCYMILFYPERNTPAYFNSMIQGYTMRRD
Experiment: Calcium mobilisation assay, TAS1R2-S212G subunit alone
Type: cell-based
Excerpt: The coding sequences for TAS1R2 and TAS1R3 were commercially synthesised, and the human codon was optimised for expression in human cells. The coding sequences of human TAS1R2 and TAS1R3 were subcloned and inserted into the mammalian expression vectors pcDNA6/myc-HisA and pcDNA4/myc-HisA (Invitrogen; Thermo Fisher Scientific; Illkirch, France) between the EcoRI and NotI restriction sites, generating the plasmids pcDNA6-TAS1R2 and pcDNA4-TAS1R3, respectively. To increase protein expression in mammalian cells, an upstream start codon was used, which was a sequence called MAX, corresponding to the QBI SP163 element also described in pcDNA4-HisMax (Invitrogen; Thermo Fisher Scientific; Illkirch, France). To measure the expression level of the receptor by immunohistochemistry, we used the FLAG sequence ([…]) in the C-terminal position, which encodes the FLAG tag epitope. […]
The HEK293T cells were kindly provided by Jay P. Slack (Givaudan Flavors Corporation; Cincinnati, OH, USA). […] The fluorescence intensity was measured for 90 s (excitation 488 nm, emission 510 nm) in an automated fluorometric FlexStation®3 Multi-Mode microplate reader (Molecular Devices; San Jose, CA, USA). […] The Ca^2+ changes were expressed as fractional changes in fluorescent light intensity: ΔF/F = (F − F0)/F0, where F was the fluorescent light intensity at each point, and F0 was the value of emitted fluorescent light prior to stimulus application. To calculate dose–response relationships, the changes in fluorescence upon stimulus application were averaged, mock-subtracted and baseline-corrected. […] The half-maximal effective concentrations (EC50 values) and maximal signal amplitudes were calculated using SigmaPlot software (version 15.0) (Systat Software; San Jose, CA, USA).
For in vitro calcium mobilisation assay performed on hTAS1R2-SNPs, hTAS1R3-SNPs and mTAS1R3-I60T, 6 to 7 concentrations were tested for each sweet compound, plus buffer alone. All concentration–receptor combinations were measured in duplicate, and each experiment was repeated at least 4 times (8 wells/concentration). […]

C=C(C)[C@@H]1CC=C(/C=N/O)CC1 [Perillartine, perillartine]
EC50: 178 ± 22.7 µM
R1 = Variant EC50/WT EC50: 2.0
Max ΔF/F0 (maximal signal amplitude): 0.47 ± 0.02
